Entries after “also recorded” stand apart in the source; their conditions may differ. Residues, ends and D or L forms follow the SMILES beside them. *: point of attachment. Cbz = O=C(OCc1ccccc1)*; CH2F = FC*
Experiments:
[1] = tested on: CAG NOD/SCID myeloma model; details: 150 mg/kg; by day 9; cited from earlier work
CDK4 and CDK6 [2] = assay: Phase I/II clinical trial in multiple myeloma; assay type: in vivo; details: within the tolerable dose in humans; preliminary data
IL-6Rα, gp130, Stat3 = assay: IL-6 signaling in myeloma cells (surface IL-6Rα, gp130, p-Stat3); assay type: cell-based, human; details: for expression of surface IL-6Rα (gp80): PD 0332991 0.25 μM, bortezomib 4 nM; for surface gp130: PD 0332991, bortezomib 4 nM, or both
Procedure: Viable cells were obtained by Ficoll density centrifugation (GE Healthcare, Piscataway, N.J.). Cytosolic and mitochondrial fractions were isolated as described (Yang et al., 1997). Whole cells or purified mitochondria were lysed in a buffer containing 10 mM Tris-HCl, pH 7.5, 150 mM NaCl, 5 mM EDTA, 1% Triton X-100, and protease inhibitors. For detection of phosphorylated Stat3, cells were lysed in a buffer containing 20 mM Tris, pH 7.5, 150 mM NaCl, 1 mM EDTA, 1 mM EGTA, 1% Triton X-100, 2.5 mM sodium pyrophosphate, 1 mM β-glycerophosphate, 1 mM Na3VO4, and protease inhibitors. Immunoblotting was performed as described in Huang et al. (2004). Signals were developed with the SuperSignal West Femto Maximum Sensitivity Substrate (Pierce Biotechnology, Rockford, Ill.).

[3] = tested on: MM1.S and MM1.R human myeloma cell lines; assay: Cytotoxic killing of myeloma cell lines (viability, mitochondrial membrane depolarization)
[4] = tested on: human osteoclast cultures; assay: Osteoclast formation from bone marrow cells of multiple myeloma patients; assay type: cell-based
Procedure: Non-adherent mononuclear bone marrow cells from multiple myeloma patients were cultured in the presence of macrophage colony stimulating factor (M-CSF) and Receptor Activator for Nuclear Factor κ[…] (RANKL) for three weeks.

[5] = tested on: retinoblastoma (Rb)-positive tumor cells; details: cited from earlier work
CDK4 and CDK6 [6] = details: cited from earlier work
Luc+GFP+MM1.S cells = assay: NOD/SCID xenograft human myeloma model (bioluminescence imaging); assay type: in vivo, NOD/SCID mice; details: for MMD in human myeloma cells vs mouse BM cells in vivo: bortezomib 0.25 mg/kg, with or without PD 0332991 150 mg/kg pretreatment; for tumor development (BLI): day 8, PD 0332991 150 mg/kg daily 3 days, bortezomib 0.25 mg/kg days 4 and 7
MM1.S cells = assay: Apoptosis pathway in myeloma cells (caspase/PARP cleavage, Bcl-2 family mRNA and protein, Smac release); assay type: cell-based, human
Procedure: Total RNA was isolated using the TRIzol reagent (Invitrogen). […] Reactions were carried out in triplicate in the ABI PRISM 7900 HT Sequence Detection System. The relative amount of products was determined by the comparative Ct method according to the manufacturer's instructions. Viable cells were obtained by Ficoll density centrifugation (GE Healthcare, Piscataway, N.J.). Cytosolic and mitochondrial fractions were isolated as described (Yang et al., 1997). Whole cells or purified mitochondria were lysed in a buffer containing 10 mM Tris-HCl, pH 7.5, 150 mM NaCl, 5 mM EDTA, 1% Triton X-100, and protease inhibitors. For detection of phosphorylated Stat3, cells were lysed in a buffer containing 20 mM Tris, pH 7.5, 150 mM NaCl, 1 mM EDTA, 1 mM EGTA, 1% Triton X-100, 2.5 mM sodium pyrophosphate, 1 mM β-glycerophosphate, 1 mM Na3VO4, and protease inhibitors. Immunoblotting was performed as described in Huang et al. (2004). Signals were developed with the SuperSignal West Femto Maximum Sensitivity Substrate (Pierce Biotechnology, Rockford, Ill.). For immunoprecipitation, lysate (50 μg of protein) was precleared with 20 μl of Protein G PLUS-agarose beads (Santa Cruz Biotechnology, Santa Cruz, Calif.) and incubated with rabbit anti-Bim, anti Bcl-XL (Cell signaling Technology), anti-Mcl1 (Santa Cruz), anti-Bak (Sigma) or mouse anti-Bcl-2 (DakoCytomation, Carpinteria, Calif.) overnight at 4° C. The immunocomplexes were collected by incubation with Protein G PLUS-agarose beads (Santa Cruz) and centrifugation. These immunocomplex samples were then analyzed by immunoblotting.

[7] = tested on: at least thirty-eight other types of kinases, including CDK2; details: at concentrations below 5 μM, at least 38 other kinases; cited from earlier work
[8] = tested on: primary CD138+ human BM myeloma (BMM) cells; assay: Killing of primary myeloma cells co-cultured with HS-5 stromal cells; details: for reduction of live BMM cells: 24 hours ex vivo, PD 0332991 1-2 μM
[9] = tested on: myeloma, AML and solid tumor xenograft; details: cited from earlier work
CDK4/6 = details: mantle cell lymphoma and acute myeloid leukemia cells ex vivo; cited from earlier work
HMCLs, including MM1.S = assay: BrdU-uptake and DNA content (cell cycle) in human myeloma cell lines; assay type: cell-based; details: for proportion of cells in S phase: PD 0332991 0.25 μM 24 h
Procedure: Cells were incubated with 5-bromo-2-deoxyuridine (BrdU, 5 μg/ml; Sigma) at 37° C. for 30 min (HMCLs) or 16 h (BMM cells). Cells were fixed with 70% ethanol overnight at 4° C., incubated with 0.4 mg/ml pepsin for 20 min at room temperature and 2N HCl for 10 min at 37° C. Samples were washed with 50 mM sodium borate (pH 8.5) and then 0.1% BSA/PBS. To detect BrdU, cells were incubated with a FITC-conjugated anti-BrdU mouse mAb (Roche Diagnostics, Pleasanton, Calif.) for 30 min at room temperature. For DNA content analysis, cells were incubated further with 50 μg/ml propidium iodide and 100 U/ml ribonuclease A (Sigma) for 30 min at 37° C. Samples were analyzed by flow cytometry.

In the case of `CC(=O)c1c(C)c2cnc(Nc3ccc(N4CCNCC4)cn3)nc2n(C2CCCC2)c1=O` [PD 0332991, 6-acetyl-8-cyclopentyl-5-methyl-2-[5-piperazin-1-yl-pyridin-2-ylamino)-8H-pyrido[2,3-d]pyrimidin-7-one], the tumor burden [1] is given as “reduced tumor burden profoundly”, the “inhibition of CDK4 and CDK6 and tumor cell division in patients” value (CDK4 and CDK6 [2]) is given as “completely inhibits” and the Stat3 protein (IL-6Rα, gp130, Stat3) is given as “reduction of Stat3 protein”. For the same compound, the “expression of surface IL-6Rα (gp80)” value (IL-6Rα, gp130, Stat3) was “virtually eliminated”, the “surface gp130” value (IL-6Rα, gp130, Stat3) was “only modestly” and the “killing of Dex-resistant MM1.R cells by low dose bortezomib after PD 0332991” value ([3]; MM1.R cells, 24 hours) was “virtual eradication of cells”. For the same compound, the “bortezomib killing after prior G1 arrest” value ([3]; PD 0332991 24 h, then bortezomib at high dose (250 nM) for 1 h, analysed 6 h later) was “profoundly enhanced”, the “killing by low dose bortezomib added after PD 0332991 vs concurrently” value ([3]; bortezomib 2-6 nM added 24 or 48 hours after PD 0332991) was “greater” and the “MMD and viability, bortezomib added upon removal of PD 0332991 vs unsynchronized cells” value ([3]; bortezomib 4 or 6 nM, continuous) was “greater MMD and loss of viability”. For the same compound, the “bortezomib killing during synchronous G1-S transition” value ([3]; bortezomib pulse at 4 hours post PD 0332991 removal) was “augmented further”, the “MMD and cytotoxic killing by low dose dexamethasone after G1 arrest” value ([3]; dexamethasone 5-50 nM) was “augmented” and the IC50 ([4]; Homo sapiens, Osteoclast, 504 h, treatment for 3 weeks) was 50 nM. For the same compound, the “time course of treatment on osteoclast formation” value ([4]; first week, but not second or third week) was “sufficient to inhibit osteoclast formation”, the anti-proliferative activity [5] was “potent anti-proliferative agent” and the IC50 (CDK4 and CDK6 [6]; freshly isolated primary human BMM cells and HMCLs ex vivo, read-out: IC50, inhibition of CDK4 and CDK6) was 60 nM. The “cell cycle outcome of CDK4/CDK6 inhibition” value (CDK4 and CDK6 [6]; primary BMM cells and HMCLs) was “exclusive G1 arrest unaccompanied by apoptosis; also recorded: exclusive G1 arrest in the absence of apoptosis”, the “MMD in human myeloma cells vs mouse BM cells in vivo” value (Luc+GFP+MM1.S cells) was “augmented” and the “tumor development (BLI)” value (Luc+GFP+MM1.S cells) was “only modestly reduced”. For the same compound, the “activation of caspase-8 by bortezomib after prior PD 0332991 treatment” value (MM1.S cells) was “similarly augmented”, the “Noxa mRNA and protein” value (MM1.S cells; following PD 0332991-induced G1 arrest) was “no longer detectable” and the “activity against other kinases” value [7] was “does not cross react; also recorded: little or no activity”. For the same compound, the “reduction of live BMM cells” value [8] was “greater”, the “sensitization of BMM cells from bortezomib-refractory patients (MM10)” value ([8]; PD 0332991 pretreatment 4 hours) was “sufficient to sensitize” and the “sensitization of other bortezomib-refractory BMM cells (MM 8, MM 9)” value ([8]; PD 0332991 pretreatment 24 hours) was “susceptible to bortezomib killing”. The “bortezomib killing after PD 0332991 pretreatment” value ([8]; pretreatment 4-24 hours) was “markedly augmented”, the “myeloma tumor growth upon discontinuation” value ([9]; after discontinuation of PD 0332991) was “resumed upon discontinuation” and the tumor growth ([9]; myeloma, AML and solid tumor xenograft models) was “suppressed tumor growth”. For the same compound, the “inhibition of CDK4/6” value (CDK4/6) was “effectively inhibited”, the “time G1 arrest and synchronous S phase entry were maintained in the absence of apoptosis” value (HMCLs, including MM1.S; MM1.S cells cultured with PD 0332991) was “at least 6 days” and the G1 arrest (HMCLs, including MM1.S; PD 0332991 0.25 μM) was “complete G1 arrest; also recorded: marked accumulation of G1 cells”. For the same compound, the “proportion of cells in S phase” value (HMCLs, including MM1.S; 12 hours after removal) was 65% and the “proportion of cells in S phase” value (HMCLs, including MM1.S; 18 hours after removal) was 67%.

For `COC(=O)C[C@H](NC(=O)[C@H](C)NC(=O)[C@@H](NC(=O)OCc1ccccc1)C(C)C)C(=O)CF` [ZVAD-FMK] (Cbz-Val-Ala-Asp(OMe)-CH2F), the “killing by PD-B in the presence of pan-caspase inhibitor” value (MM1.S cells) was “completely inhibited”.

In the case of `CC(C)C[C@H](NC(=O)[C@H](Cc1ccccc1)NC(=O)c1cnccn1)B(O)O` [bortezomib], the “expression of surface IL-6Rα (gp80)” value (IL-6Rα, gp130, Stat3) is reported as “did not vary”, the “surface gp130” value (IL-6Rα, gp130, Stat3) is reported as “only modestly” and the “MMD in human myeloma cells vs mouse BM cells in vivo” value (Luc+GFP+MM1.S cells) is reported as “differentially induced”. The “tumor development (BLI)” value (Luc+GFP+MM1.S cells) was “only modestly reduced”, the “TRAIL mRNA” value (MM1.S cells; q-RT-PCR) was “marginal increase” and the “Bim and MCL-1 mRNAs” value (MM1.S cells; q-RT-PCR, bortezomib 4 nM 12 h, with or without PD 0332991 0.25 μM 24 h) was “coordinately elevated”. The “reduction of live BMM cells” value [8] was “greater” and the “cell cycle effect of bortezomib alone” value (HMCLs, including MM1.S; bortezomib 6 nM alone) was “striking loss of cells in the S phase”.
